Active and inactive are the calls of the source. No rule for the calls is given here.
How the values were obtained:
[1] = compound enhancement of TRAIL-induced cell killing – NB7 cells plus caspase-8, luminescence, panel, dose response (AID 652002); settings: NB7 neuroblastoma +caspase-8, no TRAIL, compound-alone cytotoxicity counter-screen, luminescence viability, NB7+Caspase-8
NB7+Caspase-8 = test: as above; settings: NB7 neuroblastoma +caspase-8, TRAIL sensitization, luminescence viability, with TRAIL
[2] = molecular target: Tumor necrosis factor receptor superfamily member 10B (Homo sapiens) (UniProt O14763); test: as above; settings: NB7 neuroblastoma +caspase-8, TRAIL sensitization, luminescence viability; NB7+Caspase-8; with TRAIL, mean of runs
Tumor necrosis factor receptor superfamily member 10B (Homo sapiens), sequence (O14763 whole entry, looked up): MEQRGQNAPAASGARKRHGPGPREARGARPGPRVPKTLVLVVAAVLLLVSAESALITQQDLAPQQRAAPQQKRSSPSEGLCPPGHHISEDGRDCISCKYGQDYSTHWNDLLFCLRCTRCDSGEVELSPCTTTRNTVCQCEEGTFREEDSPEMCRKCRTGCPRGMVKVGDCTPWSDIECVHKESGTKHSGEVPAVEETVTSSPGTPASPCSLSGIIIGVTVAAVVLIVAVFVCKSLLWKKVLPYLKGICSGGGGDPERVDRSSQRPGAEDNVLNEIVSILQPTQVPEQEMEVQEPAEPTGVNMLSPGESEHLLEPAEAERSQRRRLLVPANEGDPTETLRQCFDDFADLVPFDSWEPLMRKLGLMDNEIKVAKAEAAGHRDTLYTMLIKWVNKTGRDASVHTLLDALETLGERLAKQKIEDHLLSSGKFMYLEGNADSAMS

[3] = run 1, single replicate panel EC50
[4] = run 2, single replicate panel EC50

| SMILES | EC50 ([1]; mean of runs) | EC50 [1, 3] [µM] | EC50 [1, 4] [µM] | EC50 (NB7+Caspase-8; [3]) [µM] | EC50 (NB7+Caspase-8; [4]) [µM] | EC50 [2] |
| --- | --- | --- | --- | --- | --- | --- |
| CC(C)(C)OC(=O)[C@H](Cc1ccccc1)NC(=O)c1[nH]cnc1C(=O)Nc1ccccc1F | > 12.5 µM (inactive) | > 12.5 | > 12.5 | > 12.5 | > 12.5 | > 12.5 µM (inactive) |
| CN(C)S(=O)(=O)c1ccc(C(=O)Nc2nnc(SCC(=O)NCC3CCCO3)s2)cc1 (stereo unspecified) | > 12.5 µM (inactive) | > 12.5 | > 12.5 | > 12.5 | > 12.5 | > 12.5 µM (inactive) |
| CC(C)C(=O)Nc1ccc(NC(=O)c2ccccn2)cn1 | inactive | > 12.5 | 11.6 | > 12.5 | 9.78 | inactive |
| CCC(C)c1ccc(O)c(NC(=S)NC(=O)c2cccs2)c1 (stereo unspecified) | inactive | 5.97 | 8.18 | > 12.5 | 7.09 | inactive |
| CCOC(=O)c1sc(NC(=O)c2cc(-c3ccccc3C)nc3ccccc23)c(C#N)c1C | > 12.5 µM (inactive) | > 12.5 | > 12.5 | > 12.5 | > 12.5 | > 12.5 µM (inactive) |
| C#CC(=O)CC1(CN(Cc2ccccc2)C(=O)OC(C)(C)C)CCCCC1 | inactive | 7.26 | 1.52 | 3.12 | 7.51 | inactive |
| O=C(NC1=NCCS1)c1cc2ccccc2o1 | inactive | > 12.5 | 4.22 | 5.35 | 10.4 | inactive |
| COc1ccc(OCC(=O)N/N=C/C=C/c2ccccc2)cc1 | inactive | 10.3 | > 12.5 | > 12.5 | 1.96 | inactive |
| Cc1cc2nc(-c3ccc(SCC(=O)Nc4nccs4)nc3)[nH]c2cc1C | > 12.5 µM (inactive) | > 12.5 | > 12.5 | 5.16 | > 12.5 | inactive |
| COc1ccc(-c2nc(-c3ccc(NC(=O)c4ccncc4)cc3)no2)cc1OC | > 12.5 µM (inactive) | > 12.5 | > 12.5 | > 12.5 | > 12.5 | > 12.5 µM (inactive) |
| Cc1ccc(NC(=O)c2cc3ccccc3o2)nc1 | inactive | 7.34 | 11 | > 12.5 | 8.86 | inactive |
| O=C(N/N=C/c1cccnc1)c1ccc2c(c1)OCO2 | inactive | 11.2 | > 12.5 | > 12.5 | > 12.5 | > 12.5 µM (inactive) |
| CSc1ccc(/C=C/c2ccc3cccc(O)c3n2)cc1 | inactive | 7.93 | > 12.5 | > 12.5 | 6.31 | inactive |
| Clc1nc(Cl)c2ncn(-c3ccccc3)c2n1 | > 12.5 µM (inactive) | > 12.5 | > 12.5 | > 12.5 | > 12.5 | > 12.5 µM (inactive) |
| Cc1cc(N/N=C/c2ccccc2)nc(NCc2ccccc2)n1 | > 12.5 µM (inactive) | > 12.5 | > 12.5 | > 12.5 | 10.9 | inactive |
| Cc1ccc(NC(=O)c2ccccc2O)cc1 | inactive | 11.1 | 7.77 | > 12.5 | 10.5 | inactive |
| COc1cc(SC#N)ccc1N=Cc1c(C)[nH]n(-c2ccc(Cl)cc2)c1=O | > 12.5 µM (inactive) | > 12.5 | > 12.5 | > 12.5 | > 12.5 | > 12.5 µM (inactive) |
| C=Cc1ccc(Cn2c(C)c(C(=O)NCc3cccc(C(F)(F)F)c3)sc2=O)cc1 | > 12.5 µM (inactive) | > 12.5 | > 12.5 | > 12.5 | > 12.5 | > 12.5 µM (inactive) |
| CC1(Cc2ccc(OC(F)(F)F)cc2)C(=O)Nc2ccc(S(=O)(=O)NC3CCCCC3)cc21 (stereo unspecified) | inactive | > 12.5 | 12.3 | > 12.5 | > 12.5 | > 12.5 µM (inactive) |
| Cc1nc(Cl)c2oc3ccccc3c2n1 | > 12.5 µM (inactive) | > 12.5 | > 12.5 | > 12.5 | > 12.5 | > 12.5 µM (inactive) |
| CCOC(=O)[C@]12Cc3cc4ccccc4cc3[C@H]1N(Cc1ccccc1)C(=O)c1cc(OC)ccc12 | > 12.5 µM (inactive) | > 12.5 | > 12.5 | > 12.5 | > 12.5 | > 12.5 µM (inactive) |

From PubChem BioAssay AID652002 (Sanford-Burnham Center for Chemical Genomics, 2013)
